“Also recorded” adds a separate entry of the source. Square brackets hold non-standard residues; d marks the D form. Peptide text beside a SMILES is read from it. * marks the point of attachment. sY = N[C@@H](Cc1ccc(OS(=O)(=O)O)cc1)C(=O)O; Cbz = O=C(OCc1ccccc1)*; Boc = CC(C)(C)OC(=O)*
Columns and labels:
CCK receptor = conditions: background literature; cited from earlier work
[1] = target: T1, CCK receptor, brain (cerebral cortex) (Cavia porcellus, UniProt H0VZC5); experiment: CCK Receptor Binding (Brain): inhibition of 125I-CCK(-33) binding; parameters: species or system guinea pig (Male Hartley); conditions: guinea pig cerebral cortex membranes
T1 construct: Cerebral cortex was dissected and used as a receptor source; from tissue; host or cells: guinea pig cerebral cortex membranes
T1 sequence (H0VZC5 1-426): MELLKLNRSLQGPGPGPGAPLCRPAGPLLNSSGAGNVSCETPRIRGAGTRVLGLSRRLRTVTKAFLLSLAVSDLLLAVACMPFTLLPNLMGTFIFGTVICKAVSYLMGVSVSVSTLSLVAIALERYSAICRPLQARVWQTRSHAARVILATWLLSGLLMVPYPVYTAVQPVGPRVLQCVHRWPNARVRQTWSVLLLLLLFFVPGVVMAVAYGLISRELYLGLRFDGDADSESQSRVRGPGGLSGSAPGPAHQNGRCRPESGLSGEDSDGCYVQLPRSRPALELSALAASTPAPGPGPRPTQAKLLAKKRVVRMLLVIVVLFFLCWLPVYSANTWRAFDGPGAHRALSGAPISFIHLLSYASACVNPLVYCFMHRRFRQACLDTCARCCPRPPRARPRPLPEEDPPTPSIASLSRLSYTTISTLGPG
Description: 2. CCK Receptor Binding (Brain)
CCK-33 was radiolabeled and the binding was performed according to the description for the pancreas method with modifications according to Saito et al., J. Neurochem. 37:483-490, 1981.
Male Hartley guinea pigs (300-500 g) were sacrificed by decapitation and the brains were removed and placed in ice-cold 50 mM, Tris HCl plus 7.58 g/l Trizma-7.4 (pH 7.4 at 25° C.). Cerebral cortex was dissected and used as a receptor source. Each gram of fresh guinea pig brain tissue was homogenized in 10 ml of Tris/Trizma buffer with a Brinkman polytron PT-10. The homogenates were centrifuged at 42,000 g for 15 minutes. Pellets were resuspended in Tris Buffer, centrifuged as above and resuspended in 200 volumes of binding assay buffer (10 mM N-2-hydroxyethyl-piperazine-N'-2-ethane sulfonic acid (HEPES), 5 mM MgCl2, 0.25 mg/ml bacitracin, 1 mM ethylene glycol-bis-(β-aminoethylether-N,N'-tetraadetic acid) (EGTA), and 0.4% bovine serum albumin (BSA)). […] All assays were run in duplicate or triplicate. The reaction mixtures were incubated at 25° C. for 2 hours and centrifuged in a Beckman Microfuge (4 minutes) immediately after adding 1 ml of ice-cold incubation buffer. The supernatant was aspirated and discarded, pellets were counted with a Beckman gamma 5000.

gastrin = conditions: background literature; in vitro; cited from earlier work
CCK receptor, pancreas = target: T2, CCK receptor, pancreas (Rattus norvegicus, UniProt P30551); experiment: CCK Receptor Binding (Pancreas): inhibition of 125I-CCK(-33) binding; parameters: species or system rat (Male Sprague-Dawley); conditions: protease inhibitors added to the binding assay
T2 construct: The whole pancreas was dissected free of fat tissue and was homogenized; from tissue; host or cells: rat pancreas membranes
T2 sequence (P30551 1-444): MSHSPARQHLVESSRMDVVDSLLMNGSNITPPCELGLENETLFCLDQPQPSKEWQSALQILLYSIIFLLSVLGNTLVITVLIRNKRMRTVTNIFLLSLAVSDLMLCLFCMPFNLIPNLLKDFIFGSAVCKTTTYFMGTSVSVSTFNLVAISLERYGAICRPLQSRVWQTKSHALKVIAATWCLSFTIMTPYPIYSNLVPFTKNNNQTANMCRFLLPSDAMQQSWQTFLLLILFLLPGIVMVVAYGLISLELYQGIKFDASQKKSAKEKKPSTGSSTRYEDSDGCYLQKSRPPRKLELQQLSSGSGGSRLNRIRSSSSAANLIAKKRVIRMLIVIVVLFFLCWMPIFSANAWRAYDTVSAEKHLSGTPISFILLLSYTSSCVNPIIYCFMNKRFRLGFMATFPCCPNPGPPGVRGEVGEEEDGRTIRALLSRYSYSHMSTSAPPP
Description: 1. CCK Receptor Binding (Pancreas)
CCK-33 was radiolabeled with ^125 I-Bolton Hunter reagent (2000 Ci/mmole) as described by Sankara et al. (J. Biol. Chem. 254: 9349-9351, 1979). Receptor binding was performed according to Innis and Snyder (Proc. Natl. Acad. Sci. 77, 6917-6921, 1980) with the minor modification of adding the additional protease inhibitors, phenylmethane sulfonyl fluoride and o-phenanthroline. The latter two compounds have no effect on the ^125 -CCK receptor binding assay.
Male Sprague-Dawley rats (200-350 g) were sacrificed by decapitation. The whole pancreas was dissected free of fat tissue and was homogenized in 20 volumes of ice-cold 50 mM, Tris HCl (pH 7.7 at 25° C.) with a Brinkmann Polytron PT 10. The homogenates were centrifuged at 48,000 g for 10 min. Pellets were resuspended in Tris Buffer, centrifuged as above and resuspended in 200 volumes of binding assay buffer (50 mM Tris HCl, pH 7.7 at 25° C., 5 mM dithiothrietol, 0.1 mM bacitracin, 1.2 mM phenylmethane sulfonyl fluoride and 0.5 mM o-phenanthroline). […] All assays were run in duplicate or triplicate. The reaction mixtures were incubated at 37° C. for 30 minutes and centrifuged in a Beckman Microfuge (4 minutes) immediately after adding 1 ml of ice-cold incubation buffer. The supernatant was aspirated and discarded, pellets were counted with a Beckman gamma 5000. […]

Structure (SMILES) | CCK antagonism (in words) (CCK receptor) | further results
CCCC(=O)Nc1nc2c(ncn2[C@@H]2O[C@@H]3COP(=O)(O)O[C@H]3[C@H]2OC(=O)CCC)c(=O)[nH]1 [dibutyryl cyclic GMP] | the most potent | –
CSCC[C@H](NC(=O)OC(C)(C)C)C(=O)N[C@@H](CC(=O)O)C(=O)N[C@@H](Cc1ccccc1)C(N)=O [Boc-Met-Asp-Phe-NH2] (Boc-Met-Asp-Phe-NH2) | can function as CCK antagonists | –
CSCC[C@H](N)C(=O)N[C@@H](CC(=O)O)C(=O)N[C@@H](Cc1ccccc1)C(N)=O [Met-Asp-Phe-NH2] (H-Met-Asp-Phe-NH2) | can function as CCK antagonists | –
CN1C(=O)[C@@H](NC(=O)c2cc3cc(O)ccc3[nH]2)N=C(c2ccccc2)c2ccccc21 [Example 15, 1,3-Dihydro-3-(5-hydroxyindole-2-carbonylamino)-1-methyl-5-phenyl-2H-1,4-benzodiazepin-2-one] | – | IC50 [1]: 910 nM
CCCN(CCC)C(=O)C(CCC(=O)O)NC(=O)c1ccccc1 (centres unmarked) [proglumide] | – | gastrin antagonism (in words) (gastrin): very weak in vitro antagonists
CSCC[C@H](NC(=O)[C@H](Cc1ccc(OS(=O)(=O)O)cc1)NC(=O)OCc1ccccc1)C(=O)NCC(=O)N[C@@H](Cc1c[nH]c2ccccc12)C(=O)N[C@@H](CCSC)C(=O)N[C@@H](CC(=O)O)C(N)=O [Cbz-Tyr(SO3 H)-Met-Gly-Trp-Met-Asp-NH2] (Cbz-[sY]MGWMD-NH2) | can function as CCK antagonists; also recorded: partial agonist | –
c1cnc2c(c1)ccc1cccnc12 [o-phenanthroline] | – | effect on the 125-CCK receptor binding assay (CCK receptor, pancreas): no effect
O=S(=O)(F)Cc1ccccc1 [phenylmethane sulfonyl fluoride] | – | effect on the 125-CCK receptor binding assay (CCK receptor, pancreas): no effect

From patent publication US5324726A, “Benzodiazepine analogs” (Merck & Co., Inc., priority 1992, dated 1994)
